# Results published in BindingDB's records for doi:10.1021/jm970517u (Merck Research Laboratories, 1998).
# Assay: Half maximal inhibition of binding of [125I]CCK-8 to Cholecystokinin type B receptor in guinea pig cerebral cortex.
row,Compound,IC50 [nM]
1,"O=C(Cc1ccc(C(F)(F)F)cc1C(F)(F)F)N[C@@H]1N=C(c2ccccc2)c2ccccc2N(CC(F)(F)F)C1=O [2-(2,4-Bis-trifluoromethyl-phenyl)-N-[(R)-2-oxo-5-phenyl-1-(2,2,2-trifluoro-ethyl)-2,3-dihydro-1H-benzo[e][1,4]diazepin-3-yl]-acetamide]",> 1000
2,"O=C(Cc1ccc(C(F)(F)F)cc1C(F)(F)F)N[C@H]1N=C(c2ccccc2)c2ccccc2N(CC(F)(F)F)C1=O [2-(2,4-Bis-trifluoromethyl-phenyl)-N-[(S)-2-oxo-5-phenyl-1-(2,2,2-trifluoro-ethyl)-2,3-dihydro-1H-benzo[e][1,4]diazepin-3-yl]-acetamide]",> 1000
3,"CC(C)N1C(=O)[C@H](NC(=O)Cc2cc(Cl)cc(Cl)c2)N=C(c2ccccc2)c2ccccc21 [2-(3,5-Dichloro-phenyl)-N-((R)-1-isopropyl-2-oxo-5-phenyl-2,3-dihydro-1H-benzo[e][1,4]diazepin-3-yl)-acetamide]",> 1000
4,"CN1C(=O)[C@H](NC(=O)C(N)Cc2ccccc2)N=C(c2ccccc2)c2ccccc21 (stereo partly drawn) [2-Amino-N-((R)-1-methyl-2-oxo-5-phenyl-2,3-dihydro-1H-benzo[e][1,4]diazepin-3-yl)-3-phenyl-propionamide]",> 1000
5,"CN1C(=O)[C@H](NC(=O)CCc2ccc(Cl)cc2Cl)N=C(c2ccccc2)c2ccccc21 [3-(2,4-Dichloro-phenyl)-N-((R)-1-methyl-2-oxo-5-phenyl-2,3-dihydro-1H-benzo[e][1,4]diazepin-3-yl)-propionamide]",> 1000
6,"CN(C)CCN1C(=O)C(NC(=O)CCc2ccc(Cl)cc2Cl)N=C(c2ccccc2)c2ccccc21 (centres undefined) [3-(2,4-Dichloro-phenyl)-N-[1-(2-dimethylamino-ethyl)-2-oxo-5-phenyl-2,3-dihydro-1H-benzo[e][1,4]diazepin-3-yl]-propionamide]",> 1000
7,"CC(=O)Nc1ccc(CCC(=O)N[C@@H]2N=C(c3ccccc3)c3ccccc3N(C)C2=O)cc1 [3-(4-Acetylamino-phenyl)-N-((R)-1-methyl-2-oxo-5-phenyl-2,3-dihydro-1H-benzo[e][1,4]diazepin-3-yl)-propionamide]",> 1000
8,"CN1C(=O)[C@H](NC(=O)CCc2ccc(N)cc2)N=C(c2ccccc2)c2ccccc21 [3-(4-Amino-phenyl)-N-((R)-1-methyl-2-oxo-5-phenyl-2,3-dihydro-1H-benzo[e][1,4]diazepin-3-yl)-propionamide]",> 1000
9,"CC(C)N1C(=O)[C@H](NC(=O)CCC2CCCCC2)N=C(c2ccccc2)c2ccccc21 [3-Cyclohexyl-N-((R)-1-isopropyl-2-oxo-5-phenyl-2,3-dihydro-1H-benzo[e][1,4]diazepin-3-yl)-propionamide]",> 1000
10,"CN1C(=O)[C@H](NC(=O)CCC2CCCCC2)N=C(c2ccccc2)c2ccccc21 [3-Cyclohexyl-N-((R)-1-methyl-2-oxo-5-phenyl-2,3-dihydro-1H-benzo[e][1,4]diazepin-3-yl)-propionamide]",> 1000
11,"CN1C(=O)[C@H](NC(=O)/C=C/c2ccc(Cl)cc2Cl)N=C(c2ccccc2)c2ccccc21 [(E)-3-(2,4-Dichloro-phenyl)-N-((R)-1-methyl-2-oxo-5-phenyl-2,3-dihydro-1H-benzo[e][1,4]diazepin-3-yl)-acrylamide]",> 1000
12,"CN1C(=O)[C@H](NC(=O)CCc2ccccc2)N=C(c2ccccc2)c2ccccc21 [(R)-N-(1-methyl-2-oxo-5-phenyl-2,3-dihydro-1H-benzo[e][1,4]diazepin-3-yl)-3-phenylpropanamide]",> 1000
13,"CN1C(=O)[C@H](NC(=O)Cc2ccccc2)N=C(c2ccccc2)c2ccccc21 [N-((R)-1-Methyl-2-oxo-5-phenyl-2,3-dihydro-1H-benzo[e][1,4]diazepin-3-yl)-2-phenyl-acetamide]",> 1000
14,"CN1C(=O)[C@H](NC(=O)c2ccccc2)N=C(c2ccccc2)c2ccccc21 [N-((R)-1-Methyl-2-oxo-5-phenyl-2,3-dihydro-1H-benzo[e][1,4]diazepin-3-yl)-benzamide]",> 1000
